From PMC10025480 (Frontiers in Pharmacology, 2023)

Key:
[1] = tested on: HBE cells; assay: Goblet cell formation (MUC5AC+ and acetylated α-tubulin+ stained area) in HBE; format: cell-based, human; conditions: for acetylated α-tubulin (ciliated) stained area / MUC5AC+ stained area (goblet cells): 96 h; for MUC5AC+ stained area (goblet cells): IL-13 naïve and IL-13 treated cultures
Description: HBE cultured at air-liquid interface for 14–21 days were treated with TMEM16A blockers ± IL-13 (10 ng/mL; basolateral) for 96 h to establish any effects on goblet cell numbers. At 48h, LDH levels in the media were measured according to the manufacturer’s instructions (Roche Cytotoxicity Detection Kit #11644793001), and blockers, IL-13 and media were refreshed. At 96 h, wells were fixed in 4% formaldehyde and were stained with antibodies to MUC5AC (45M1; Thermo Fisher, United Kingdom) and acetylated α-tubulin (6-11B-1; Sigma, United Kingdom) as previously described ([Danahay et al., 2015]; [Danahay et al., 2020b]) with secondary antibodies to enable fluorescence detection of both proteins (Alexa Fluor; Thermo Fisher, United Kingdom). The MUC5AC^+ stained area was visualised using a Zeiss Axiovert epifluorescence microscope with a motorised stage that was used to image the same 9 regions of interest on each insert. ImageJ was used to quantify the MUC5AC^+ and stained area per insert which was normalised to the vehicle control group. The process was repeated for the acetylated α-tubulin^+ stained area.

[2] = target: T1, hTMEM16Aabc (Homo sapiens, UniProt Q5XXA6, DEL476-501); assay: Short-circuit current (ISC), FRT-TMEM16Aabc monolayers in Ussing chambers; format: cell-based; conditions: for UTP-stimulated integrated ISC response (AUC) / UTP-stimulated peak increase in ISC: 5 min pre-treatment, apical, UTP 10 µM, concentration-dependent
T1 construct: expressed in transfected cells
T1 sequence (Q5XXA6 with tags, fused parts or gaps isoform Q5XXA6-5 DEL539-564): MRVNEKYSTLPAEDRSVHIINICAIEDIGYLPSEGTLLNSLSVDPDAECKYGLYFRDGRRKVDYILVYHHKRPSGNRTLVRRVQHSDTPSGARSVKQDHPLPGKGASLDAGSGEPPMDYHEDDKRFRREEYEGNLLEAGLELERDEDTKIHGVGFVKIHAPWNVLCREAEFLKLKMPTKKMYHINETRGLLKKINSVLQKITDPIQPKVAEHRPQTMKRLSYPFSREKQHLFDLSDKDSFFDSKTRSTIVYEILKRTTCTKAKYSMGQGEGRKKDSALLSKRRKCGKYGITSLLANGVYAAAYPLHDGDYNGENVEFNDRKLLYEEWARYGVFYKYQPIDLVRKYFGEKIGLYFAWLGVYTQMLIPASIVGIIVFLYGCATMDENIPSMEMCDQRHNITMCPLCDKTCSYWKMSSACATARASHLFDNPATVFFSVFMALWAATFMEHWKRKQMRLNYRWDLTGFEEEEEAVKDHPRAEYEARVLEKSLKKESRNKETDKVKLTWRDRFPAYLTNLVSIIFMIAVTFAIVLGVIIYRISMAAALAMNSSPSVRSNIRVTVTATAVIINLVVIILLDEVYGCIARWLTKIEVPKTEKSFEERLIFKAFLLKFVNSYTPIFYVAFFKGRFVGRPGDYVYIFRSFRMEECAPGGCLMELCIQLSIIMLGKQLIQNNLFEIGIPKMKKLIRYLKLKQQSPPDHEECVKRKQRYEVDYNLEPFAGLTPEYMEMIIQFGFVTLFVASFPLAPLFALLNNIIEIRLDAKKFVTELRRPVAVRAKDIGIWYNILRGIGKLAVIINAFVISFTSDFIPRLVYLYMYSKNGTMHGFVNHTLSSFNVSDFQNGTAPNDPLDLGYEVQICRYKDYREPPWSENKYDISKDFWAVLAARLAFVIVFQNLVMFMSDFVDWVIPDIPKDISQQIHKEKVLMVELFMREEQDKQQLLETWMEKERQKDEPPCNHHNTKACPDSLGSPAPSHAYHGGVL
Description: FRT-hTMEM16Aabc cells were mounted in Ussing chambers in asymmetrical Ringers solutions. The basolateral Ringers contained (in mM): 120 NaCl, 25 NaHCO3, 3.3 KH2PO4, 0.8 K2HPO4, 1.2 CaCl2, 1.2 MgCl2, and 10 glucose. In the apical Ringers solution, NaCl was reduced to 80 mM and 40 mM sodium gluconate was included to establish a Cl^− gradient. The solution osmolarity was between 280 and 300 mosmol kg H2O^−1 and was continuously gassed (5% CO2 in O2; pH 7.4) and maintained at 37°C. Cells were voltage clamped to 0 mV (model EVC4000; WPI) and the short-circuit current (ISC) was measured. Data were recorded using a PowerLab workstation and LabChart software (ADInstruments, Abingdon, Oxon, United Kingdom). TMEM16A blockers were added to the apical side of the epithelium for 5 min before the addition of UTP, that was used to stimulate a TMEM16A-mediated chloride secretory responses.

[3] = tested on: FRT-TMEM16Aabc cells; assay: Intracellular Ca2+ measurement (Calcium6), FRT-TMEM16Aabc cells; format: cell-based; conditions: 10 min pre-treatment
Description: (§1) CF-HBE cultured at air-liquid interface for 14–21 days were pre-treated with IL-13 (10 ng/mL; 48 h). CF-HBE were then loaded with the Ca^2+-sensitive fluorescent reporter dye, Calcium6 for 120 min at 37°C in Hanks balanced salt solution (HBSS) buffered with 20 mM HEPES (pH 7.4). […] The direct effects of apically administered TMEM16A blockers on [Ca^2+]i as well as effects on the subsequent responses to UTP were measured using a PHERAstar plate reader (BMG Lab Tech, United Kingdom). Equivalent measurements were performed in FRT-TMEM16Aabc cells that had been cultured in 96 well, clear bottom plastic plates and loaded with Calcium6 using the same protocol.

[4] = tested on: HBE cells (non-CF); assay: Short-circuit current (ISC) and transepithelial resistance, non-CF HBE; format: cell-based, human; conditions: for Inh172-sensitive ISC / amiloride-sensitive current / magnitude of response to amiloride / forskolin-stimulated current: after compound treatment; for change in transepithelial resistance: vehicle +108 ± 14
Description: (§2) HBE cultured at air-liquid interface (ALI) for 14–21 days were mounted in Ussing chambers in symmetrical Ringers solution containing (in mM): 120 NaCl, 25 NaHCO3, 3.3 KH2PO4, 0.8 K2HPO4, 1.2 CaCl2, 1.2 MgCl2, and 10 glucose, and voltage clamped as described above. In some studies, HBE were pre-treated with IL-13 (10 ng/mL; Peprotech, United Kingdom) for 48 h to increase TMEM16A expression levels ([Caputo et al., 2008]). Amiloride (10 μM; apical) was used to block the spontaneous, ENaC-mediated current, whilst UTP (10 μM; apical) and forskolin (10 μM; apical and basolateral) were added to the bath solutions to activate Ca^2+ and cAMP-dependent anion secretory responses, respectively. Inh172 (30 μM; apical and basolateral) was also used to inhibit CFTR function. The TMEM16A blockers were added to the apical side of the Ussing chambers to evaluate effects on each of these currents.

[5] = tested on: CF-HBE cells; assay: Intracellular Ca2+ measurement (Calcium6), IL-13 pre-treated CF-HBE at ALI; format: cell-based, human; conditions: for direct effect on baseline [Ca2+]i: apical addition; for UTP-stimulated elevation of [Ca2+]i: pre-treatment
Description: as §1

[6] = tested on: CF-HBE cells; assay: Short-circuit current (ISC), IL-13 pre-treated CF-HBE; format: cell-based, human
Description: as §2

[7] = after amiloride, 5 min pre-treatment

SMILES	acetylated α-tubulin (ciliated) stained area [1]	MUC5AC+ stained area (goblet cells) [1]	UTP-stimulated integrated ISC response (AUC) [2]	UTP-stimulated peak increase in ISC [2]	UTP-stimulated increase in [Ca2+]i [3]	Inh172-sensitive ISC [4]	amiloride-sensitive current / magnitude of response to amiloride [4]	forskolin-stimulated current [4]	change in transepithelial resistance [4]	direct effect on baseline [Ca2+]i [5]	UTP-stimulated elevation of [Ca2+]i [5]	UTP-stimulated peak increase in ISC [6, 7]	also measured
CCc1oc2ccccc2c1C(=O)c1cc(Br)c(O)c(Br)c1 [benzbromarone]	significantly attenuated	significantly attenuated	attenuated	attenuated	significantly attenuated	attenuated	attenuated	attenuated	+170 ± 25 Ω cm^2	immediate and transient increase	attenuated	attenuated	effect on baseline ISC prior to UTP [2]: without effect; decline in the baseline ISC ([4]; apical): 50%; direct effect on amiloride-insensitive baseline ISC [6]: Neither Ani9 nor benzbromarone had any direct effect; UTP-stimulated ISC AUC [6, 7]: attenuated
O=C(Nc1ccc([N+](=O)[O-])cc1Cl)c1cc(Cl)ccc1O [niclosamide]	significantly attenuated	significantly attenuated	attenuated	attenuated	significantly attenuated	attenuated	attenuated	attenuated	−174 ± 19 Ω cm^2	immediate and transient increase	attenuated	attenuated	air-liquid interface integrity ([1]; by 48 h after initiating treatment, media on mucosal surface): compromised; transient increase in ISC on addition ([2]; 10 µM, vehicle 0.0 ± 0.1): 4.4 ± 0.3 µAcm^-2; subsequent attenuation of the baseline current ([2]; 10 µM, vehicle −0.3 ± 0.1): −6.7 ± 0.7 µAcm^-2; reduction in the baseline ISC ([4]; 10 µM, within 30 min of addition): ~90%; immediate, transient increase in ISC ([6]; 10 µM, vehicle 0.5 ± 0.2): 6.8 ± 1.0 µAcm^-2; change to lower baseline ISC than before compound addition ([6]; 10 µM, vehicle −0.3 ± 0.1): −0.9 ± 0.2 µAcm^-2
